Assay results taken from PMC11062894, “Protein-based bandpass filters for controlling cellular signaling with chemical inputs” (Nature Chemical Biology, 2023).
Several values for one entry are separate records, joined by “and”; a condition that tells them apart may be missing. Identical values can stand only once.

Test system: GEMS receptors with CBPA11 (BclXL–LD3 and BclXLhigh variants), STAT3-driven SEAP in HEK293T cells
Test: GEMS SEAP reporter assay, CBPA11 (BclXLhigh, LD3-v and BclXL-v variants) with A-1155463
Type: cell-based
Set-up: key to Raw data (SEAP) / SEAP, replicate values / Raw data of Figure 5b / Raw data Figure 5e / Raw data of Independent repeat of CBPA11-v1 vs CBPA11-v1-LD3v3 / Raw data of Independent repeat of CBPA11-v3 vs CBPA11-v3-LD3v3 / Raw data of Figure 5b, CBPA11-v1-LD3v3 (SEAP reporter raw value, single replicate) / Raw data of Figure 5b, CBPA11-v1 (SEAP reporter raw value, single replicate): SEAP activity in U/L in culture supernatant
Details: for Normalized data (SEAP) / Raw data (SEAP): SuppFigure 9c, LD3v3
From the text: To rationally design a CBP responding to a chemical input, we used BclXL as the druglow receptor, LD3 as the designed binder and a designed BclXL variant as the drughigh receptor (referred to as BclXLhigh) to construct a CBP responsive to BclXL inhibitors (Fig. 4a). To design BclXLhigh, we used a multistate design computational protocol described elsewhere[26] […] Thus, BclXLhigh-v(1–3) were chosen as the functional drughigh receptors, resulting in three A-1155463-controlled CBPs (referred to as CBPA11-v(1–3)) (Fig. 4c–e).
HEK293T cells were seeded in a 96-well plate 24 h before transfection. The transfection mix in each well consisted of 3 ng of constitutive human CMV promoter driven mammalian STAT3 expression vector (PhCMV-STAT3-pA), 30 ng of STAT3-induced reporter expression (OStat3-PhCMVmin-SEAP-pA) and 50 ng of expression vectors for each GEMS receptor chain (PSV40-IgK-(drughigh receptor)-EpoRm-IL-6RBm-pA and PSV40-IgK-(druglow receptor-GGGGSX3-LD3)-EpoRm-IL-6RBm-pA). For the specific drughigh receptor and druglow receptor used in the different cellular assays, they are indicated as wild type or with mutations. Then, plasmid DNA was mixed with 50 μl opti-MEM (Thermo Fisher) and 600 ng of polyethyleneimine (Polysciences, catalog no. 24765-1). For drug treatment experiments, drugs were added 12 h post-transfection and incubated with cells for 24 h before the SEAP reporter detection assay.
SEAP activity (U l^−1) in cell culture supernatants was quantified by kinetic measurements at 405 nm (1 minute per measurement for 30 cycles) of absorbance increase due to phosphatase-mediated hydrolysis of para-nitrophenyl phosphate (pNPP).
Binding affinities of SPR drug competition assays were calculated using three-parameter nonlinear regression in GraphPad Prism (v.8.3.0). Representative data of cell assays are presented as individual values and mean values (bars). n = 3 refers to biological replicates. All IC50 or EC50 values of cell assays reported were calculated using four-parameter nonlinear regression ± s.d. Bandpass features of cutoff concentrations and Bandwidth90% were estimated based on the curve fitted using bell-shaped curve nonlinear regression in GraphPad Prism (v.8.3.0). […]
Supplementary Figure 4: Design, screening and validation of BclXLhigh variants. a) Screening of BclXLhigh variants in the GEMS platform. […]
Dissociation constant measurement of BclXLhigh-v(1-3) and LD3. Equilibrium curves are fitted using […]
BclXLhigh-v1 (purple), BclXLhigh-v2 (blue), […]
a) Bcl2high-based bandpass filter designs were developed and to respond to different concentrations of […]
corresponding inhibitor. c) Screening of Bcl2high-based bandpass filter variants in the GEMS platform.
The designed binder LD3 was fused to the druglow-receptor (PSV40-IgK-Bcl2-LD3-EpoRm-IL-6RBm-pA) in one EpoR chain and Bcl2high variants with the insensitive Bcl2 (iBcl2) as control in the other EpoR chain (PSV40-IgK-Bcl2high-EpoRm-IL-6RBm-pA). HEK293T cells were transfected with indicated […]
the mean of six biological replicates ± s.d., overlaid with a scatter dot plot of the original data points.
(1 picture or pasted object on this page, not shown here)
Supplementary Figure 6: Binding affinities and drug resistances of Bcl2high-v(2,4,5) assessed by […]
a) Measurement of dissociation constants for Bcl2high-v(2,4,5) and LD3 interactions. Equilibrium curves […]
Bcl2high-v(2,4,5) measured by SPR. 5 μM of Bcl2 or indicated variants were mixed with 10 μM of […]
Bcl2high-v2 (red), Bcl2high-v4
Supplementary Figure 7: Screening of LD3 variants in CBPA11-v(1-3) and raw data of CBPA11-v(1,3) with LD3-v3 variant. a-c) Screening of LD3 and LD3-v(1-3) variants in complex with BclXL for more sensitive CBPA11-v1 (a), CBPA11-v2 (b), CBPA11-v3 (c) in the GEMS platform. The LD3 variants replaced the role of LD3 (PSV40-IgK-BclXL-LD3-v(1-3)-EpoRm-IL-6RBm-pA) in one EpoR chain and BclXLhigh-v(1-3) in the other EpoR chain (PSV40-IgK-BclXLhigh-V(1-3)-EpoRm-IL-6RBm-pA). HEK293T cells were transfected with […]

Compound: CN(C)CC#Cc1ccc(OCCCc2sc(N3CCc4cccc(C(=O)Nc5nc6ccccc6s5)c4C3)nc2C(=O)O)c(F)c1 [A-1155463]
- Normalized data (SEAP) (A-1155463 10 nM): 57.1742
- Raw data (SEAP) (A-1155463 10 nM): 4.199
- Normalized data (SEAP) (A-1155463 31.6 nM): 64.0307
- Raw data (SEAP) (A-1155463 31.6 nM): 4.702
- Normalized data (SEAP) (A-1155463 100 nM): 100
- Raw data (SEAP) (A-1155463 100 nM): 7.344
- Normalized data (SEAP) (A-1155463 316 nM): 98.6857
- Raw data (SEAP) (A-1155463 316 nM): 7.247
- Normalized data (SEAP) (A-1155463 1000 nM): 76.9661
- Raw data (SEAP) (A-1155463 1000 nM): 5.652
- Normalized data (SEAP) (A-1155463 3160 nM): 98.598
- Raw data (SEAP) (A-1155463 3160 nM): 7.241
- Normalized data (SEAP) (A-1155463 10000 nM): 93.3297
- Raw data (SEAP) (A-1155463 10000 nM): 6.854
- SEAP, replicate values (Supplementary Figure 9e, CBPA11-v3-BclXLv2, A-1155463 1 nM): 84.4482 and 81.7463 and 104.541
- SEAP, replicate values (Supplementary Figure 9e, CBPA11-v3-BclXLv2, A-1155463 3.18 nM): 146.322 and 134.178 and 165.303
- SEAP, replicate values (Supplementary Figure 9e, CBPA11-v3-BclXLv2, A-1155463 10 nM): 324.719 and 293.474 and 344.378
- SEAP, replicate values (Supplementary Figure 9e, CBPA11-v3-BclXLv2, A-1155463 31.8 nM): 360.563 and 353.899 and 371.872
- SEAP, replicate values (Supplementary Figure 9e, CBPA11-v3-BclXLv2, A-1155463 100 nM): 397.777 and 391.029 and 415.369
- SEAP, replicate values (Supplementary Figure 9e, CBPA11-v3-BclXLv2, A-1155463 318 nM): 374.208 and 326.503 and 405.592
- SEAP, replicate values (Supplementary Figure 9e, CBPA11-v3-BclXLv2, A-1155463 1000 nM): 326.827 and 274.864 and 352.239
- SEAP, replicate values (Supplementary Figure 9e, CBPA11-v3-BclXLv2, A-1155463 3180 nM): 224.895 and 197.696 and 225.125
- SEAP, replicate values (Supplementary Figure 9e, CBPA11-v3, A-1155463 1 nM): 77.8998 and 72.2772 and 68.2722
- SEAP, replicate values (Supplementary Figure 9e, CBPA11-v3, A-1155463 3.18 nM): 101.26 and 74.5174 and 69.017
- SEAP, replicate values (Supplementary Figure 9e, CBPA11-v3, A-1155463 10 nM): 279.56 and 237.506 and 229.509
- SEAP, replicate values (Supplementary Figure 9e, CBPA11-v3, A-1155463 31.8 nM): 420.603 and 418.534 and 369.593
- SEAP, replicate values (Supplementary Figure 9e, CBPA11-v3, A-1155463 100 nM): 495.942 and 494.207 and 527.219
- SEAP, replicate values (Supplementary Figure 9e, CBPA11-v3, A-1155463 318 nM): 528.894 and 526.095 and 525.969
- SEAP, replicate values (Supplementary Figure 9e, CBPA11-v3, A-1155463 1000 nM): 429.812 and 444.52 and 449.13
- SEAP, replicate values (Supplementary Figure 9e, CBPA11-v3, A-1155463 3180 nM): 188.374
- SEAP, replicate values (Supplementary Figure 9d, CBPA11-v1-BclXLv2, A-1155463 1 nM): 111.205 and 87.5973 and 101.043
- SEAP, replicate values (Supplementary Figure 9d, CBPA11-v1-BclXLv2, A-1155463 3.18 nM): 157.154 and 178.429 and 193.635
- SEAP, replicate values (Supplementary Figure 9d, CBPA11-v1-BclXLv2, A-1155463 10 nM): 436.402 and 372.407 and 451.931
- SEAP, replicate values (Supplementary Figure 9d, CBPA11-v1-BclXLv2, A-1155463 31.8 nM): 433.431 and 447.679 and 460.586
- SEAP, replicate values (Supplementary Figure 9d, CBPA11-v1-BclXLv2, A-1155463 100 nM): 510.537 and 467.35 and 481.779
- SEAP, replicate values (Supplementary Figure 9d, CBPA11-v1-BclXLv2, A-1155463 318 nM): 466.109 and 461.812 and 531.315
- SEAP, replicate values (Supplementary Figure 9d, CBPA11-v1-BclXLv2, A-1155463 1000 nM): 444.141 and 425.472 and 444.224
- SEAP, replicate values (Supplementary Figure 9d, CBPA11-v1-BclXLv2, A-1155463 3180 nM): 353.967 and 340.947 and 373.905
- SEAP, replicate values (Supplementary Figure 9d, CBPA11-v1-BclXLv2, A-1155463 10000 nM): 194.487 and 169.62 and 189.065
- SEAP, replicate values (Supplementary Figure 9d, CBPA11-v1, A-1155463 1 nM): 63.0929 and 67.5149 and 84.3456
- SEAP, replicate values (Supplementary Figure 9d, CBPA11-v1, A-1155463 3.18 nM): 70.097 and 95.813 and 111.853
- SEAP, replicate values (Supplementary Figure 9d, CBPA11-v1, A-1155463 10 nM): 455.879 and 489.769 and 488.832
- SEAP, replicate values (Supplementary Figure 9d, CBPA11-v1, A-1155463 31.8 nM): 620.201 and 681.136 and 678.515
- SEAP, replicate values (Supplementary Figure 9d, CBPA11-v1, A-1155463 100 nM): 962.669 and 957.215 and 954.472
- SEAP, replicate values (Supplementary Figure 9d, CBPA11-v1, A-1155463 318 nM): 973.295 and 858.467 and 847.573
- SEAP, replicate values (Supplementary Figure 9d, CBPA11-v1, A-1155463 1000 nM): 855.269 and 763.206 and 684.986
- SEAP, replicate values (Supplementary Figure 9d, CBPA11-v1, A-1155463 3180 nM): 503.783 and 501.256 and 493.903
- SEAP, replicate values (Supplementary Figure 9d, CBPA11-v1, A-1155463 10000 nM): 194.615 and 191.032 and 215.159
